Paper PMC12566971, “Polyprenylated Acylphloroglucinols from Hypericum rochelii and Hypericum olympicum—Cytotoxic Effects on Non-Tumorigenic Cell Lines and Antibacterial Potential” (Pharmaceuticals, 2025)
≈ marks a conversion by molar mass, not a printed value. Where “and” joins values, the source holds several entries; their conditions need not be identical. Equal values may be shown once. Read-outs that look alike come from different tables or passages of the source.

Assays:
[1] = system: Methicillin-Resistant S. aureus (MRSA); assay: MIC and MBC evaluation (broth microdilution, agar plate assay); type: cell-based, Staphylococcus aureus
Experimental: The MIC and MBC assessment on the pathogenic bacteria and the candidate probiotic lactic acid bacteria was carried out by the broth microdilution assay (BMD) and the agar plate assay, respectively, as described in [4]. The metabolic (dehydrogenase) activity of the lactic acid bacteria was assessed as described in [4].
P. aeruginosa PAO1 ATCC 15692 was purchased from the American Type Cell Culture Collection (ATCC, Manassas, VA, USA). S. mutans DSM 20523 was bought from the German Collection of Microorganisms and Cell Cultures (DSMZ GmbH, Braunschweig, Germany). All other bacteria and strains were purchased as described in [4].

[2] = system: Lactiplantibacillus plantarum; assay: MIC evaluation on lactobacilli (broth microdilution); type: cell-based
Experimental: (§1) The MIC and MBC assessment on the pathogenic bacteria and the candidate probiotic lactic acid bacteria was carried out by the broth microdilution assay (BMD) and the agar plate assay, respectively, as described in [4]. The metabolic (dehydrogenase) activity of the lactic acid bacteria was assessed as described in [4]. Lactobacilli of different origins from the collection of Laboratory “Lactic Acid Bacteria and Probiotics”, the Stephan Angeloff Institute of Microbiology, Bulgarian Academy of Sciences (Sofia, Bulgaria), were selected (Table 13). The strains had been assessed previously, as candidate probiotics, according to the in vitro criteria recommended by the EFSA and the WHO guidelines. They were stored at −20 °C in MRS broth (Merck Group, Darmstadt, Germany) supplemented with 20% v/v sterile glycerol. Prior to the experiments, lactobacilli were subcultured twice in MRS broth (GM369, HiMedia, Mumbai, India) at 37 °C. An overnight exponential-phase culture (5% v/v inoculum) was used for the tests.

[3] = system: Limosilactobacillus fermentum; assay: as above; type: cell-based
Experimental: as §1

[4] = system: CCL-1; assay: MTT assay for cytotoxicity; type: cell-based, murine
Experimental: The MTT assay was performed according to Annex C, ISO 10993-5 [56] as in [116]. The panel of non-tumorigenic cell lines consisted of one murine (CCL-1 fibroblasts, which are recommended as a standard for cytotoxicity evaluation in Annex C of ISO 10993-5 [56]) and four human cell lines—HaCaT (immortalized epidermal keratinocytes), HGF (gingival fibroblasts), HEK-293 (embryonic cells from kidney epithelium), and HEPG2 (hepatoblastoma). Although technically a cancer cell line, HEPG2 is non-tumorigenic and retains many hepatocyte-related features in its proteome and a high degree of morphological and functional differentiation, also being a stage one hepatoblastoma.
CCL-1 was purchased from ATCC and HaCaT and HGF were bought from CLS Cell Lines Service (GmbH, Eppelheim, Germany). HEK-293 and HEPG2 were obtained from DSMZ. The cell culture medium for HaCaT and HEPG2 was Dulbecco’s Modified Eagle Medium (DMEM) with 4.5 g/L glucose (DMEM-HA). For HGF it was DMEM/F-12 (DMEM-12-A, a 1:1 mixture of DMEM and Ham’s F-12 medium). The cell medium for CCL-1 and HEK-293 was Eagle’s Minimum Essential Medium (MEM) (MEM-A). Ten percent heat-inactivated fetal bovine serum (FBS) was added to all media but to the one for the CCL-1 cells, to which 10% heat-inactivated horse serum was added. All media were supplemented with 2 mM L-glutamine and Penicillin/Streptomycin (Pen/Strep, 100×). The cell culture media, sera, and additives were from Capricorn Scientific (Düsseldorf, Germany).
GraphPad Prism software version 9 (GraphPad Software Inc., San Diego, CA, USA) was used to calculate the IC50 values from the MTT assays as in [116], as well as the MTC values, and the ELISA standard curves. The MTC values are, according to ISO 10993-5, the maximum concentration at which at least 70% of the cells are viable (nonlin fit, range).

[5] = system: icaA gene in MRSA; assay: Real-time PCR, relative gene expression; type: cell-based, Staphylococcus aureus; settings: control = 1
Experimental: (§2) The preparation of the samples for the RNA isolation was carried out as for the biofilm assay. RNA from the treated samples and the untreated positive MRSA control was isolated with the help of the Environmental DNA & RNA Purification Kit (E3572, EURx Ltd., Gdańsk, Poland). […] A total of 50 µL lysozyme (20 mg/mL) from chicken egg white (L6876, Merck Sigma-Aldrich) and 10 µL lysostaphin (L4402, Merck Sigma-Aldrich) from Staphylococcus staphylolyticus (200 U/mL) were added per sample. […] The samples, being bacterial, were subjected to cDNA synthesis using random hexamer primers and reverse transcriptase enzymes. The obtained cDNA samples were stored at −80 °C and used for real-time PCR.
(§3) For normalization of the data, the rho gene was used as a housekeeping gene.

[6] = system: icaD gene in MRSA; assay: Real-time PCR, relative gene expression; type: cell-based, Staphylococcus aureus; settings: control = 1
Experimental: as §2, §3

[7] = system: CCL-1 cell line; assay: Live-cell imaging with Hoechst for apoptosis detection; type: cell-based; settings: low MIC doses
Experimental: Cell suspension was seeded in the same manner as for MTT, but 50 µL per well in 96-well clear bottom plates. […] For the hypertonic buffer, the exposure time was 2 h, and the cells were plated at twice the concentration as for the MTT and cytopathic tests in order to comply with the kit protocol.
At least two wells were seeded as replicates, and at least two photographs were taken for all samples and treatments, stained with dyes or not.

[8] = system: Methicillin-Resistant S. aureus (MRSA); settings: ref [4],[29]; cited from earlier work
[9] = system: Streptococcus pyogenes; settings: ref [4],[29]; cited from earlier work
[10] = system: MRSA biofilm; settings: assessed and published previously, ref [29], cited from earlier work
[11] = system: tumor cell lines; settings: ref [29]; cited from earlier work

With `CC(C)=CCCC1(C)C(CC=C(C)C)CC2C(=O)C1(C(=O)C(C)C)C(=O)C(CC=C(C)C)=C2O` (stereo not drawn) [Olympiforin B] the MBC ([1]; Staphylococcus aureus, MRSA) was 68 µg/mL and 121 µM, the “MBC/MIC ratio, MRSA” value ([1]; bactericidal if ≤ 4, bacteriostatic if > 4) was 68 and the MIC ([2]; strain Lpl 11, read-out: MIC, Lpl 11) was 2 µg/mL (≈ 4.27 µM). The MIC ([2]; strain Lpl 25, read-out: MIC, Lpl 25) was 2 µg/mL (≈ 4.27 µM), the MIC ([2]; strain Lpl.AC11S, read-out: MIC, Lpl.AC11S) was 2 µg/mL (≈ 4.27 µM) and the MIC ([2]; strain Lpl.L6, read-out: MIC, Lpl.L6) was 4 µg/mL (≈ 8.53 µM). The MIC ([3]; strain Lf53, read-out: MIC, Lf53) was 2 µg/mL (≈ 4.27 µM), the MIC ([3]; strain Lf98, read-out: MIC, Lf98) was 2 µg/mL (≈ 4.27 µM) and the IC50 ([4]; Mus musculus, MTT assay) was 5.5 µg/mL (≈ 11.7 µM). The “Maximum tolerated concentration (MTC), CCL-1” value ([4]; at least 70% of cells viable, ISO 10993-5) was 4.79 µg/mL, the “Relative gene expression, icaA” value ([5]; 1/8 × MIC) was 0.37 and the “Relative gene expression, icaA” value ([5]; 1/16 × MIC) was 0.53. For the same compound, the “Relative gene expression, icaA” value ([5]; 1/32 × MIC) was 0.28, the “Relative gene expression, icaD” value ([6]; 1/8 × MIC) was 0.41 and the “Relative gene expression, icaD” value ([6]; 1/16 × MIC) was 0.82. The “Relative gene expression, icaD” value ([6]; 1/32 × MIC) was 0.95, the “Nuclear and DNA condensation (signs of apoptosis)” value [7] was “did not cause any nuclear and DNA condensation” and the “MIC on bacteria, MRSA” value [8] was 1 µg/mL (≈ 2.13 µM). The “MIC on bacteria, S. pyogenes” value [9] was 4 µg/mL (≈ 8.53 µM), the “Median Biofilm Inhibitory Concentration (MBIC50), MRSA” value [10] was 0.05 (0.03 to 0.07) µg/mL and the “Minimum Biofilm Inhibitory Concentration (MBIC), MRSA” value [10] was 0.5 (1/2 × MIC) µg/mL and 1.07 µM. For the same compound, the “Minimum Biofilm Inhibitory Concentration (MBIC), MRSA” value ([10]; listed as olympiforin B) was 0.5 µg/mL, the IC50 ([10]; read-out: Median Biofilm Inhibitory Concentration (MBIC50), MRSA) was 0.12 µM and the IC50 [11] was 1.3 µM.
